Laboratory results reported in patent publication US20260315562A1, “NOVEL FEED-ADDITIVE COMPOSITION” (KYNTOX BIOTECH INDIA PRIVATE LIMITED, priority 2023, published 2026).

What was measured:
[1] = Safety of test sample in non-infected freshwater crabs (Placebo group); further: key: 0: Represents live animal; 1: Represents Animal Mortality; format: in vivo, P. hydrodromous; conditions: GML 5 mg/animal
Procedure: Placebo: The term is used herein in reference to disease negative wherein the highest dose of test molecule has been injected, and evidences for safety of test molecules.
(§1) Freshwater crabs P. hydrodromous were collected from Padavedu (12.6310070 79.052885°) Vellore, India.
(§2) The animals with a body weight of 20-25 g were transported to the laboratory and maintained at room temperature (25° C.). The crabs were fed twice a day with boiled egg whites. The crabs were kept in the described condition for one week before the experiment.
(§3) The anti-viral efficacy of GMVL and saponin-rich extract against WSSV was assessed in the freshwater crab, previously acclimated to laboratory conditions. The crabs were divided into different experimental groups containing 4 crabs per group and the experiment was performed in duplicates. The viral inoculum mixture was injected into the respective group after 3 h of pre-incubation. All the crabs were injected intramuscularly at the second abdominal segment. Briefly, healthy crabs received the injection as given above. The crabs were fed twice a day and observed regularly for gross signs of disease. The experiment was carried out up to several days depending on the survival after challenging with WSSV with/without above mentioned antagonist and mortality was recorded to plot a cumulative mortality graph.

[2] = tested on: white spot syndrome virus (WSSV); conditions: dietary supplementation; Qian et al. 2021, Gong et al. 2022; cited from earlier work
WSSV = assay: In vivo anti-viral bioassay: survival of freshwater crabs after WSSV challenge; on Animal survival/mortality: key: 0: Represents live animal; 1: Represents Animal Mortality; parameters: species or system P. hydrodromous
Procedure: Positive Control: The term is used herein in reference to disease positive control where only WSSV virus is injected without any antagonist. This positive for the disease expression.
The experimental groups have been divided in seven groups, Group-I-VII as described below:
as §1, §2
As described in earlier reports (Natarajan et al., 2017), haemolymph was drawn from WSSV infected shrimp using a 26-gauge syringe through heart puncture. The haemolymph was centrifuged at 3000 rpm for 20 minutes at 4° C. The supernatant was collected and it was centrifuged for 30 minutes at 4° C. and then it was filtered using 0.45p m and stored at −20° C. for further studies. The haemolymph were analyzed via PCR to confirm the presence of WSSV. To amplify the structural VP28 gene, a conventional PCR reaction was set up, which includes […], 5 pmol WSSV-VP28 primer (Table 1), 3 μl PCR-grade water, and 1 μl template DNA (Sundaram et al., 2016; Yoganandhan et al., 2003). The viral titer quantified through real time PCR, was 1.6×10^6 copies μL−1 which served as the stock for this study.
as §3

[3] = preincubated with WSSV, co-injected (i.m)

Question: Which “Animal survival/mortality (Placebo)” value ([1]; 0 h) does the source give for `CCCCCCCCCCCC(=O)OCC(O)CO` (stereo not drawn) [GML, Glycerol monolaurate] here?
Answer: 0

Question: And the “Animal survival/mortality (Placebo)” value ([1]; 6 h)?
Answer: 0

Question: And the “Animal survival/mortality (Placebo)” value ([1]; 12 h)?
Answer: 0

Question: What about the “Animal survival/mortality (Placebo)” value ([1]; 24 h) of the same compound?
Answer: 0

Question: What about the “Animal survival/mortality (Placebo)” value ([1]; 48 h) of the same compound?
Answer: 0

Question: What about the “Animal survival/mortality (Placebo)” value ([1]; 72 h) of the same compound?
Answer: 0

Question: And the “Animal survival/mortality (Placebo)” value ([1]; 96 h)?
Answer: 0

Question: What about the “Animal survival/mortality (Placebo)” value ([1]; 120 h) of the same compound?
Answer: 0

Question: And the “Animal survival/mortality (Placebo)” value ([1]; 144 h)?
Answer: 0

Question: What about the WSSV copy number [2] of the same compound?
Answer: reduced the WSSV copy number

Question: And the “mortality of WSSV-infected crayfish” value [2]?
Answer: reduce the mortality

Question: And the animal survival time (WSSV; 3 mg/animal, preincubated with WSSV, co-injected (i.m))?
Answer: > 140 h

Question: What about the “time within which all animals in the test groups died post challenging” value (WSSV; 1 and 3 mg/animal, preincubated with WSSV, co-injected (i.m)) of the same compound?
Answer: ≤ 150 h

Question: What about the Animal survival/mortality (WSSV; GML 1 mg/animal, 0 h) of the same compound?
Answer: 0

Question: What about the Animal survival/mortality (WSSV; GML 1 mg/animal, 6 h) of the same compound?
Answer: 0

Question: And the Animal survival/mortality (WSSV; GML 1 mg/animal, 12 h)?
Answer: 0

Question: What about the Animal survival/mortality (WSSV; GML 1 mg/animal, 24 h) of the same compound?
Answer: 1

Question: What about the Animal survival/mortality (WSSV; GML 1 mg/animal, 48 h) of the same compound?
Answer: 0

Question: And the Animal survival/mortality (WSSV; GML 1 mg/animal, 72 h)?
Answer: 1

Question: And the Animal survival/mortality (WSSV; GML 1 mg/animal, 96 h)?
Answer: 1

Question: What about the Animal survival/mortality (WSSV; GML 1 mg/animal, 120 h) of the same compound?
Answer: 1

Question: What about the Animal survival/mortality (WSSV; GML 3 mg/animal, 0 h) of the same compound?
Answer: 0

Question: What about the Animal survival/mortality (WSSV; GML 3 mg/animal, 6 h) of the same compound?
Answer: 0

Question: What about the Animal survival/mortality (WSSV; GML 3 mg/animal, 12 h) of the same compound?
Answer: 0

Question: What about the Animal survival/mortality (WSSV; GML 3 mg/animal, 24 h) of the same compound?
Answer: 1

Question: What about the Animal survival/mortality (WSSV; GML 3 mg/animal, 48 h) of the same compound?
Answer: 0

Question: What about the Animal survival/mortality (WSSV; GML 3 mg/animal, 72 h) of the same compound?
Answer: 1

Question: And the Animal survival/mortality (WSSV; GML 3 mg/animal, 96 h)?
Answer: 1

Question: What about the Animal survival/mortality (WSSV; GML 3 mg/animal, 120 h) of the same compound?
Answer: 1

Question: What about the Animal survival/mortality (WSSV; GML 3 mg/animal, 144 h) of the same compound?
Answer: 1

Question: What about the “mortality (in words)” value (WSSV; alone or in combination) of the same compound?
Answer: the mortality is significant

Question: And the “inhibition of the virus” value (WSSV; [3])?
Answer: partial inhibition of the virus

Question: And the “protection of the animal from lethality” value (WSSV; [3])?
Answer: could not protect the animal from lethality
